Among the data in US20120264691 (published 2012) are cleaved bond and fragment found values, retold here.

“Also recorded” adds a separate entry of the source.

A short description of series [1]: 0.1M HCl aqueous solution (pH: 1.1). The settings on record: 25±2° C., up to 72 hours.
Series [2] can be described thus: Britton-Robinson buffer solution (pH 7.0). The following applies: 40±1° C.
Series [3] can be described thus: Mcllvain buffer solutions (pH: 2.0, 3.0, 4.0, 5.0, 6.0, 7.0, 8.0). The settings on record: 25±2° C., up to 72 hours.
Series [4] in a line: Britton-Robinson buffer solutions having pH of 2.1, 3.1, 4.0, 5.0, 6.0, 7.0 and 7.9. The following applies: 40±1° C., up to 1 day.
Series [5] in a line: purified water, pH 4.7, or adjusted to pH 1.8, 3.9 (hydrochloric acid) and 7.8 (sodium hydroxide). The settings on record: 25±2° C., up to 3 day.

For “GSS(n-octanoyl)FLSPEHQRVQQRKESKKPPAKLQPR”, the cleaved bond entry in series [1] is “hydrolytic cleavage of octanoyl group, 8 hr”; in series [2] (up to 14 days) it was “hydrolytic cleavage of octanoyl group of human ghrelin, major, 4 days; also recorded: β-elimination of octanoyl group of human ghrelin, major, 4 days”; in series [3] it was “hydrolytic cleavage of octanoyl group, 8 hr”; in series [4] it was “hydrolytic cleavage of octanoyl group, 1 day”; in series [5], “hydrolytic cleavage of octanoyl group, 1 day”. The fragment found result was “degradation product D = desacyl human ghrelin (3-28), 14 days; also recorded: degradation product E = [N^α—CO—C(═CH2)—OH]human ghrelin(4-28), 14 days” in series [2] (up to 14 days) and “Dha compound, 1 day” in series [5].
As to [3-Dehydroalanine]human ghrelin, the fragment found entry in series [2] (up to 3 days) was “[N^α—CO—C(═CH2)—OH]human ghrelin(4-28) (2nd degradation product of Dha compound), 3 days”.
Regarding desacylated human ghrelin, the fragment found entry in series [2] (up to 14 days) is reported as “desacyl human ghrelin (3-28), major, 14 days”.
